In patent US20220324835A1 (Nurix Therapeutics, Inc., priority 2018, published 2022):

Experiments:
T-cell [1] = assay: IL-2 secretion from T-cells stimulated with anti-CD3 antibody alone (Biological Example 2); format: cell-based, human; conditions: T-cell, read-out: IL-2 secretion Anti-CD3 stimulation; for fold induction at 1 µM: 1 μM Cbl-b inhibitor; for fold induction at 8 µM: 8 μM Cbl-b inhibitor
T-cell [2] = assay: CD25 cell surface staining on T-cells stimulated with anti-CD3 antibody alone (Biological Example 2); format: cell-based, human; conditions: T-cell, read-out: CD25 staining Anti-CD3 stimulation; for fold induction at 1 µM: 1 μM Cbl-b inhibitor; for fold induction at 8 µM: 8 μM Cbl-b inhibitor
Cbl-b (residues 36-427) = Cbl-b (residues 36-427) (Homo sapiens, UniProt Q13191); assay: Cbl-b binding assay (SPR, Biacore T200); conditions: 20° C., 1:1 binding model
Procedure, shortened: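 Affinities derived from global 1:1 steady-state or kinetic fits of double-referenced, solvent-corrected SPR data, 20 °C, NeutrAvidin-capture chip. Compound series (top 100 or 50 μM, 8–10 points) injected 50 s, 90–180 s dissociation. Asterisked values used 50 mM instead of 100 mM NaCl and 30 nM Src kinase.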

Cbl-b = Cbl-b (Homo sapiens, UniProt Q13191); assay: Cbl-b activity assay (Cbl-b inhibition assay), TR-FRET of Cbl-b interaction with UbcH5B-Ub; format: biochemical; conditions: assay buffer with 100 mM NaCl, 60 nM Src kinase; read-out: Cbl-b activity IC50
Procedure, shortened: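 TR-FRET readout of Cbl-b binding to Bodipy-fluorescein N-terminally labeled Ub conjugated to UbcH5B C85K, measured with compound present. After compound incubation, 60 nM Src kinase with 1 mM ATP and 5 mM MgCl2 (final) was added for 1.5 h, then a further 1 h incubation; asterisked values used 50 mM NaCl buffer and 30 nM Src.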

[3] = fold change over baseline, primary human total T-cells
[4] = Homo sapiens, fold change over baseline (anti-CD3/anti-CD28 stimulated T-cells without inhibitor)

Chain of Cbl-b (residues 36-427) (Q13191 36-427): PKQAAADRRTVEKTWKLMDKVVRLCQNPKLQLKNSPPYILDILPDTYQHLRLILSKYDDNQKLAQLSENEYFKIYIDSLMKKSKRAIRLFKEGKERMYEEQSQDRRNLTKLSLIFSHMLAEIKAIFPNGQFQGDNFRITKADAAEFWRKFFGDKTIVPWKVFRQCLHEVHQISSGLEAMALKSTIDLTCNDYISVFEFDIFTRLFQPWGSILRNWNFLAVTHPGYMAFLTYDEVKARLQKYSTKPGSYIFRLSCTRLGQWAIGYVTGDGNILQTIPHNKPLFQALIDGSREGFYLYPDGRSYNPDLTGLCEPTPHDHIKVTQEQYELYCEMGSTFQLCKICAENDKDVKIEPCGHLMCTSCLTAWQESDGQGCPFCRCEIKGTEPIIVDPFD
Chain of Cbl-b (Q13191 36-427): as above

| SMILES | fold induction at 1 µM (T-cell [1]; [3]) | fold induction at 8 µM (T-cell [1]; [3]) | fold induction at 1 µM (T-cell [2]; [3]) | fold induction at 8 µM (T-cell [2]; [3]) | Kd (Cbl-b (residues 36-427)) | IC50 (Cbl-b) | fold induction at 1 µM (T-cell [1]; [4]) | fold induction at 1 µM (T-cell [2]; [4]) |
| --- | --- | --- | --- | --- | --- | --- | --- | --- |
| Cc1cc(C(=O)Nc2cccc([C@H](C)Sc3nncn3C)c2)nc(C(F)(F)F)c1 [Compound 65, (S)-4-methyl-N-(3-(1-((4-methyl-4H-1,2,4-triazol-3-yl)thio)ethyl)phenyl)-6-(trifluoromethyl)picolinamide] | < 0.05 | 0.101 to 0.15 | 0.601 to 0.8 | > 1 | 100 to 300 nM | < 100 nM |  |  |
| Cc1cc(C(=O)Nc2cccc([C@H](C)Cc3nocc3C)c2)nc(C2CC2)n1 [Compound 330, (R)-2-cyclopropyl-6-methyl-N-(3-(1-(4-methylisoxazol-3-yl)propan-2-yl)phenyl)pyrimidine-4-carboxamide] | 0.051 to 0.1 | > 0.201 | 0.801 to 1 | > 1 | 301 to 1000 nM | < 100 nM |  |  |
| C[C@H](Cc1nncn1C)c1cccc(N2Cc3c(cc(C(=O)N4CC[C@H](O)C4)cc3C(F)(F)F)C2=O)c1 [Compound 274, 6-((S)-3-hydroxypyrrolidine-1-carbonyl)-2-(3-((R)-1-(4-methyl-4H-1,2,4-triazol-3-yl)propan-2-yl)phenyl)-4-(trifluoromethyl)isoindolin-1-one] | 0.151 to 0.2 | > 0.201 | 0.801 to 1 | > 1 | < 100 nM | < 100 nM |  |  |
| C[C@H](Cc1nncn1C)c1cccc(NC(=O)c2ccnc(C3CC3)n2)c1 [Compound 199, (R)-2-cyclopropyl-N-(3-(1-(4-methyl-4H-1,2,4-triazol-3-yl)propan-2-yl)phenyl)pyrimidine-4-carboxamide] | > 0.201 | > 0.201 | > 1 | > 1 | 100 to 300 nM | < 100 nM |  |  |
| C[C@H](Sc1nncn1C)c1cccc(NC(=O)c2cc(C3CC3)cc(C(F)(F)F)n2)c1 [Compound 67, (S)-4-cyclopropyl-N-(3-(1-((4-methyl-4H-1,2,4-triazol-3-yl)thio)ethyl)phenyl)-6-(trifluoromethyl)picolinamide] | < 0.05 | 0.101 to 0.15 | 0.801 to 1 | > 1 | 100 to 300 nM | < 100 nM |  |  |
| C[C@H](Cc1nncn1C)c1cccc(N2Cc3c(cccc3C(F)(F)F)C2=O)c1 [Compound 255a, (R)-2-(3-(1-(4-methyl-4H-1,2,4-triazol-3-yl)propan-2-yl)phenyl)-4-(trifluoromethyl)isoindolin-1-one] | 0.051 to 0.1 | > 0.201 | 0.601 to 0.8 | > 1 | 100 to 300 nM | < 100 nM |  |  |
| C[C@H](Cc1nncn1C)c1cc(NC2COC2)nc(N2Cc3c(cccc3C(F)(F)F)C2=O)c1 [Compound 352, 2-{4-[(2R)-1-(4-methyl-4H-1,2,4-triazol-3-yl)propan-2-yl]-6-[(oxetan-3-yl)amino]pyridin-2-yl}-4-(trifluoromethyl)-2,3-dihydro-1H-isoindol-1-one] | 0.051 to 0.1 | > 0.201 | 0.801 to 1 | > 1 | 100 to 300 nM | < 100 nM |  |  |
| C[C@H](Cc1nncn1C)c1cccc(NC(=O)c2ccc(CO)c(C3CC3)n2)c1 [Compound 203, 6-cyclopropyl-5-(hydroxymethyl)-N-[3-[(2R)-1-(4-methyl-4H-1,2,4-triazol-3-yl)propan-2-yl]phenyl]pyridine-2-carboxamide] | > 0.201 | > 0.201 | > 1 | > 1 | < 100 nM | < 100 nM |  |  |
| Cn1cnnc1[C@H](F)C1(c2cccc(N3Cc4c(cc(CN5CCC(F)CC5)cc4C(F)(F)F)C3=O)c2)COC1 [Example 670b, (R)-2-(3-(3-(fluoro(4-methyl-4H-1,2,4-triazol-3-yl)methyl)oxetan-3-yl)phenyl)-6-((4-fluoropiperidin-1-yl)methyl)-4-(trifluoromethyl)isoindolin-1-one] |  |  |  |  | < 100 nM | < 100 nM | > 0.201 | > 1 |
| COc1ccc(C(=O)Nc2cccc([C@H](C)Sc3nncn3C)c2)nc1C1CC1 [Compound 93, 6-cyclopropyl-5-methoxy-N-[3-[(1S)-1-[(4-methyl-1,2,4-triazol-3-yl)sulfanyl]ethyl]phenyl]pyridine-2-carboxamide] | < 0.05 | 0.101 to 0.15 | 0.601 to 0.8 | > 1 | 100 to 300 nM | < 100 nM |  |  |
| C[C@H](c1cc2c(c(C(F)(F)F)c1)CN(c1cccc(C3(C(F)(F)c4nncn4C)COC3)c1)C2=O)N1CC[C@H](F)C1 [Example 571, 2-(3-(3-(difluoro(4-methyl-4H-1,2,4-triazol-3-yl)methyl)oxetan-3-yl)phenyl)-6-((R)-1-((S)-3-fluoropyrrolidin-1-yl)ethyl)-4-(trifluoromethyl)isoindolin-1-one] |  |  |  |  | < 100 nM | < 100 nM | > 0.201 | > 1 |
| C[C@H](c1cc2c(c(C(F)(F)F)c1)CN(c1cccc(C3([C@@H](F)c4nncn4C)COC3)c1)C2=O)N1CCC2(CC2)C1 [Example 576, 6-((R)-1-(5-azaspiro[2.4]heptan-5-yl)ethyl)-2-(3-(3-((R)-fluoro(4-methyl-4H-1,2,4-triazol-3-yl)methyl)oxetan-3-yl)phenyl)-4-(trifluoromethyl)isoindolin-1-one] |  |  |  |  | < 100 nM | < 100 nM | > 0.201 | > 1 |
| C[C@H](Cc1nncn1C)c1cccc(NC(=O)c2n[nH]c3c2CCC3)c1 [Compound 313, (R)-N-(3-(1-(4-Methyl-4H-1,2,4-triazol-3-yl)propan-2-yl)phenyl)-1,4,5,6-tetrahydrocyclopenta[c]pyrazole-3-carboxamide] | 0.101 to 0.15 | 0.151 to 0.2 | 0.601 to 0.8 | 0.801 to 1 | 301 to 1000 nM | 100 to 300 nM |  |  |
| Cn1cnnc1CC1(c2cccc(N3Cc4c(cccc4C(F)(F)F)C3=O)c2)CC1 [Compound 299, 2-(3-(1-((4-methyl-4H-1,2,4-triazol-3-yl)methyl)cyclopropyl)phenyl)-4-(trifluoromethyl)isoindolin-1-one] | 0.051 to 0.1 | > 0.201 | > 1 | > 1 | 1000 to 3000 nM | < 100 nM |  |  |
| C[C@H](Sc1nncn1C)c1cccc(NC(=O)c2ccc(CO)c(C3CC3)n2)c1 [Compound 89, 6-cyclopropyl-5-(hydroxymethyl)-N-[3-[(1S)-1-[(4-methyl-1,2,4-triazol-3-yl)sulfanyl]ethyl]phenyl]pyridine-2-carboxamide] | < 0.05 | 0.101 to 0.15 | < 0.6 | 0.801 to 1 | 100 to 300 nM | < 100 nM |  |  |
| C[C@H](Cc1nncn1C)c1cccc(NC(=O)c2cccc(C(F)(F)F)n2)c1 [Compound 183a, (R)-N-(3-(1-(4-methyl-4H-1,2,4-triazol-3-yl)propan-2-yl)phenyl)-6-(trifluoromethyl)picolinamide] | > 0.201 | > 0.201 | > 1 | > 1 | 100 to 300 nM | < 100 nM |  |  |
| Cc1cc(C(=O)Nc2cccc([C@H](C)Cc3nncn3C)c2)nc(C(F)(F)F)n1 [Compound 194, (R)-6-methyl-N-(3-(1-(4-methyl-4H-1,2,4-triazol-3-yl)propan-2-yl)phenyl)-2-(trifluoromethyl)pyrimidine-4-carboxamide] | > 0.201 | > 0.201 | 0.801 to 1 | > 1 | 100 to 300 nM | < 100 nM |  |  |
| C[C@H](Cc1nncn1C)c1cccc(NC(=O)c2nc3c(C4CC4)cccc3[nH]2)c1 [Compound 319, 4-cyclopropyl-N-[3-[(1R)-1-methyl-2-(4-methyl-1,2,4-triazol-3-yl)ethyl]phenyl]-1H-benzimidazole-2-carboxamide] | 0.051 to 0.1 | > 0.201 | 0.601 to 0.8 | 0.801 to 1 | 100 to 300 nM | 100 to 300 nM |  |  |
| CCOc1cc([C@H](C)Cc2nncn2C)cc(N2Cc3c(cccc3C(F)(F)F)C2=O)n1 [Compound 358, (R)-2-(6-ethoxy-4-(1-(4-methyl-4H-1,2,4-triazol-3-yl)propan-2-yl)pyridin-2-yl)-4-(trifluoromethyl)isoindolin-1-one] | 0.151 to 0.2 | > 0.201 | > 1 | > 1 | < 100 nM | < 100 nM |  |  |
